Drawing on US12281122B1, “PI3K inhibitors” (Cogent Biosciences, Inc., priority 2023, dated 2025), this text covers IC50 for 19 compounds.

Usually IC50 stands for the concentration at which inhibition is half-maximal. Read a low IC50 as inhibition by little substance.

The test system of assay [1] is T47D (PI3Kα-H1047R) cell line. The assay is described as follows: HTRF phospho-AKT(S473) cell assay in T47D cells. The format is cell-based, human. The note with it: Homo sapiens; HTRF phospho-AKT(S473), T47D (PI3Kα-H1047R) cells, 2 hours compound incubation. An outline of the steps:
(§1)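 T47D (PI3Kα-H1047R; RPMI, 10% FBS, insulin) and SKBR3 (wild-type PI3Kα; McCoy's 5A, 10% FBS) cells treated 2 h at 37 °C with 12-point 1:3 dilutions, top 5 μM and 10 μM respectively, ≤0.5% DMSO. SKBR3 stimulated with 70 ng/ml PDGF-BB for the last 15 min; lysate pAKT(S473) by HTRF, IC50 from curves.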
(In general: Time-resolved FRET reads energy transfer from a long-lived donor to a nearby acceptor.)

For assay [2], the system named is SKBR3 (PI3Kα-Wild Type) cell line. The assay can be described thus: HTRF phospho-AKT(S473) cell assay in SKBR3 cells. The assay is classed as cell-based, human. As to conditions: Homo sapiens, SK-BR-3; HTRF phospho-AKT(S473), SKBR3 (PI3Kα-Wild Type) cells, 2 hours compound incubation, PDGF-BB stimulated. An outline of the steps: as §1

Each structure is given as a SMILES string. A value given as a limit tells only on which side of the number the result lay.

Regarding `Cc1cc([C@@H](C)Nc2ccc(Cl)nc2C(=O)NS(C)(=O)=O)c2nc(N3C[C@@H]4C(c5ncc(Cl)cn5)[C@@H]4C3)n(C)c(=O)c2c1` (stereo partly drawn) [Compound 535, 6-chloro-3-(((1R)-1-(2-((1R,5S)-6-(5-chloropyrimidin-2-yl)-3-azabicyclo[3.1.0]hexan-3-yl)-3,6-dimethyl-4-oxo-3,4-dihydroquinazolin-8-yl)ethyl)amino)-N-(methylsulfonyl) picolinamide], the IC50 in assay [1] was 250 to 500 nM; in assay [2], not below 5000 nM.

`Cc1cc([C@@H](C)Nc2ccc(Cl)nc2C(=O)NS(C)(=O)=O)c2nc(N3C[C@@H]4C(c5cnc(C(F)F)nc5)[C@@H]4C3)n(C)c(=O)c2c1` (stereo partly drawn) [Compound 536, 6-chloro-3-(((1R)-1-(2-((1R,5S)-6-(2-(difluoromethyl)pyrimidin-5-yl)-3-azabicyclo[3.1.0]hexan-3-yl)-3,6-dimethyl-4-oxo-3,4-dihydroquinazolin-8-yl)ethyl)amino)-N-(methylsulfonyl) picolinamide]: the 50% inhibitory concentration (IC50) was less than 250 nM in assay [1] and 1000 to 5000 nM in assay [2].

Regarding `Cc1cc([C@@H](C)Nc2ccc(Cl)nc2C(=O)NS(C)(=O)=O)c2nc(N3CC[C@H](Oc4ncc(F)cn4)C3)n(C)c(=O)c2c1` [Compound 537, 6-chloro-3-(((R)-1-(2-((S)-3-((5-fluoropyrimidin-2-yl)oxy)pyrrolidin-1-yl)-3,6-dimethyl-4-oxo-3,4-dihydroquinazolin-8-yl)ethyl)amino)-N-(methylsulfonyl) picolinamide], the results for the half-inhibitory concentration (IC50) in assay [1] and in assay [2] were 250 to 500 nM and not below 5000 nM, respectively.

For `Cc1cc([C@@H](C)Nc2ccc(Cl)nc2C(=O)NS(C)(=O)=O)c2nc(N3CC[C@@H](Oc4ncc(F)cn4)C3)n(C)c(=O)c2c1` [Compound 538, 6-chloro-3-(((R)-1-(2-((R)-3-((5-fluoropyrimidin-2-yl)oxy)pyrrolidin-1-yl)-3,6-dimethyl-4-oxo-3,4-dihydroquinazolin-8-yl)ethyl)amino)-N-(methylsulfonyl) picolinamide], the half-inhibitory concentration (IC50) was less than 250 nM in assay [1] and 1000 to 5000 nM in assay [2].

As to `Cc1cc([C@@H](C)Nc2ccc(Cl)nc2C(=O)NS(C)(=O)=O)c2nc(N3CCC(c4cc(C)no4)CC3)n(C)c(=O)c2c1` [Compound 539, (R)-6-chloro-3-((1-(3,6-dimethyl-2-(4-(3-methylisoxazol-5-yl)piperidin-1-yl)-4-oxo-3,4-dihydroquinazolin-8-yl)ethyl)amino)-N-(methylsulfonyl) picolinamide], the IC50 in assay [1] is less than 250 nM; in assay [2] it was not below 5000 nM.

On to `Cc1cc([C@@H](C)Nc2ccc(Cl)nc2C(=O)NS(C)(=O)=O)c2nc(N3CC[C@H](Nc4ncccn4)C3)n(C)c(=O)c2c1` [Compound 540, 6-chloro-3-(((R)-1-(3,6-dimethyl-4-oxo-2-((S)-3-(pyrimidin-2-ylamino)pyrrolidin-1-yl)-3,4-dihydroquinazolin-8-yl)ethyl)amino)-N-(methylsulfonyl) picolinamide], for which the 50% inhibitory concentration (IC50) in assay [1] is 250 to 500 nM; in assay [2], not below 5000 nM.

On to `Cc1cc([C@@H](C)Nc2ccc(Cl)nc2C(=O)NS(C)(=O)=O)c2nc(N3CC[C@@H](Nc4ncccn4)C3)n(C)c(=O)c2c1` [Compound 541, 6-chloro-3-(((R)-1-(3,6-dimethyl-4-oxo-2-((R)-3-(pyrimidin-2-ylamino)pyrrolidin-1-yl)-3,4-dihydroquinazolin-8-yl)ethyl)amino)-N-(methylsulfonyl) picolinamide], for which the half-inhibitory concentration (IC50) in assay [1] was less than 250 nM; in assay [2], not below 5000 nM.

As for `COc1cc([C@H]2[C@@H]3CN(c4nc5c([C@@H](C)Nc6ccc(Cl)nc6C(=O)NS(C)(=O)=O)cc(C)cc5c(=O)n4C)C[C@@H]32)nn1C` [Compound 542, 6-chloro-3-(((R)-1-(2-((1R,5S,6R)-6-(5-methoxy-1-methyl-1H-pyrazol-3-yl)-3-azabicyclo[3.1.0]hexan-3-yl)-3,6-dimethyl-4-oxo-3,4-dihydroquinazolin-8-yl)ethyl)amino)-N-(methylsulfonyl) picolinamide], the results for the IC50 in assay [1] and in assay [2] were 250 to 500 nM and not below 5000 nM, respectively.

Take `Cc1cc([C@@H](C)Nc2ccc(Cl)nc2C(=O)NS(C)(=O)=O)c2nc(N3C[C@@H]4[C@H](C3)[C@H]4n3cc(F)c(C)n3)n(C)c(=O)c2c1` [Compound 543, 6-chloro-3-(((R)-1-(2-((1R,5S,6S)-6-(4-fluoro-3-methyl-1H-pyrazol-1-yl)-3-azabicyclo[3.1.0]hexan-3-yl)-3,6-dimethyl-4-oxo-3,4-dihydroquinazolin-8-yl)ethyl)amino)-N-(methylsulfonyl) picolinamide]: the figures for the concentration for half-maximal inhibition (IC50) in assay [1] and in assay [2] were 250 to 500 nM and not below 5000 nM, respectively.

As to `Cc1cc([C@@H](C)Nc2ccc(Cl)nc2C(=O)NS(C)(=O)=O)c2nc(N3CCC(c4ncc(C)c(C)n4)CC3)n(C)c(=O)c2c1` [Compound 544, (R)-6-chloro-3-((1-(2-(4-(4,5-dimethylpyrimidin-2-yl)piperidin-1-yl)-3,6-dimethyl-4-oxo-3,4-dihydroquinazolin-8-yl)ethyl)amino)-N-(methylsulfonyl) picolinamide], the IC50 in assay [1] was less than 250 nM; in assay [2], 1000 to 5000 nM.

Regarding `Cc1cc([C@@H](C)Nc2ccc(Cl)nc2C(=O)NS(C)(=O)=O)c2nc(N3CCC(c4nc(C)co4)CC3)n(C)c(=O)c2c1` [Compound 545, (R)-6-chloro-3-((1-(3,6-dimethyl-2-(4-(4-methyloxazol-2-yl)piperidin-1-yl)-4-oxo-3,4-dihydroquinazolin-8-yl)ethyl)amino)-N-(methylsulfonyl) picolinamide], the IC50 in assay [1] is less than 250 nM; in assay [2], not below 5000 nM.

For `CCn1c(N2CCc3nn(C)cc3C2)nc2c([C@@H](C)Nc3ccc(Cl)nc3C(=O)NS(C)(=O)=O)cc(C)cc2c1=O` [Compound 546, (R)-6-chloro-3-((1-(3-ethyl-6-methyl-2-(2-methyl-2,4,6,7-tetrahydro-5H-pyrazolo[4,3-c]pyridin-5-yl)-4-oxo-3,4-dihydroquinazolin-8-yl)ethyl)amino)-N-(methylsulfonyl) picolinamide], the 50% inhibitory concentration (IC50) in assay [1] is less than 250 nM; in assay [2], 1000 to 5000 nM.

As for `Cc1cc([C@@H](C)Nc2ccc(Cl)nc2C(=O)NS(C)(=O)=O)c2nc(N3CCC(c4n[nH]c(C)c4F)CC3)n(C)c(=O)c2c1` [Compound 547, (R)-6-chloro-3-((1-(2-(4-(4-fluoro-5-methyl-1H-pyrazol-3-yl)piperidin-1-yl)-3,6-dimethyl-4-oxo-3,4-dihydroquinazolin-8-yl)ethyl)amino)-N-(methylsulfonyl) picolinamide], the IC50 is 250 to 500 nM in assay [1] and not below 5000 nM in assay [2].

`Cc1cc([C@@H](C)Nc2ccc(Cl)nc2C(=O)NS(C)(=O)=O)c2nc(N3C[C@@H]4[C@H](C3)[C@H]4c3ccnc(C)c3F)n(C)c(=O)c2c1` [Compound 548, 6-chloro-3-(((R)-1-(2-((1R,5S,6S)-6-(3-fluoro-2-methylpyridin-4-yl)-3-azabicyclo[3.1.0]hexan-3-yl)-3,6-dimethyl-4-oxo-3,4-dihydroquinazolin-8-yl)ethyl)amino)-N-(methylsulfonyl) picolinamide]: the IC50 in assay [1] was 250 to 500 nM; in assay [2] it was 1000 to 5000 nM.

As for `Cc1cc([C@@H](C)Nc2ccc(Cl)nc2C(=O)NS(C)(=O)=O)c2nc(N3CCC(n4ncnc4C)CC3)n(C)c(=O)c2c1` [Compound 549, (R)-6-chloro-3-((1-(3,6-dimethyl-2-(4-(5-methyl-1H-1,2,4-triazol-1-yl)piperidin-1-yl)-4-oxo-3,4-dihydroquinazolin-8-yl)ethyl)amino)-N-(methylsulfonyl) picolinamide], the IC50 was less than 250 nM in assay [1] and 1000 to 5000 nM in assay [2].

For `Cc1cc([C@@H](C)Nc2ccc(Cl)nc2C(=O)NS(C)(=O)=O)c2nc(N3CCC(c4ncn(C(C)C)n4)CC3)n(C)c(=O)c2c1` [Compound 550, (R)-6-chloro-3-((1-(2-(4-(1-isopropyl-1H-1,2,4-triazol-3-yl)piperidin-1-yl)-3,6-dimethyl-4-oxo-3,4-dihydroquinazolin-8-yl)ethyl)amino)-N-(methylsulfonyl) picolinamide], the concentration for half-maximal inhibition (IC50) in assay [1] was 250 to 500 nM; in assay [2], not below 5000 nM.

Consider `Cc1cc([C@@H](C)Nc2ccc(Cl)nc2C(=O)NS(C)(=O)=O)c2nc(N3C[C@@H]4[C@H](C3)[C@H]4c3ncn(C(C)C)n3)n(C)c(=O)c2c1` [Compound 551, 6-chloro-3-(((R)-1-(2-((1R,5S,6R)-6-(1-isopropyl-1H-1,2,4-triazol-3-yl)-3-azabicyclo[3.1.0]hexan-3-yl)-3,6-dimethyl-4-oxo-3,4-dihydroquinazolin-8-yl)ethyl)amino)-N-(methylsulfonyl) picolinamide], for which the 50% inhibitory concentration (IC50) is less than 250 nM in assay [1] and not below 5000 nM in assay [2].

Consider `Cc1cc([C@@H](C)Nc2ccc(Cl)nc2C(=O)NS(C)(=O)=O)c2nc(N3CCC(C)(c4cc[nH]n4)CC3)n(C)c(=O)c2c1` [Compound 552, (R)-6-chloro-3-((1-(3,6-dimethyl-2-(4-methyl-4-(1H-pyrazol-3-yl)piperidin-1-yl)-4-oxo-3,4-dihydroquinazolin-8-yl)ethyl)amino)-N-(methylsulfonyl) picolinamide], for which the 50% inhibitory concentration (IC50) in assay [1] is 250 to 500 nM; in assay [2], not below 5000 nM.

Turning to `Cc1cc([C@@H](C)Nc2ccc(Cl)nc2C(=O)NS(C)(=O)=O)c2nc(N3CCN(c4nccnc4C)CC3)n(C)c(=O)c2c1` [Compound 553, (R)-6-chloro-3-((1-(3,6-dimethyl-2-(4-(3-methylpyrazin-2-yl)piperazin-1-yl)-4-oxo-3,4-dihydroquinazolin-8-yl)ethyl)amino)-N-(methylsulfonyl) picolinamide], the half-inhibitory concentration (IC50) in assay [1] was less than 250 nM; in assay [2], 1000 to 5000 nM.
